According to patent publication US9566247B2, “Nanoparticles for controlled release of anti-biofilm agents and methods of use” (priority 2013, dated 2017):

Legend:
[1] = system: Biofilms of S. mutans UA159; experiment: Antibiofilm activity, CFU per dry weight of biofilms on sHA discs; assay type: cell-based, Streptococcus mutans; details: equivalent dose of free farnesol (15% EtOH) or free NPC
Procedure: Biofilms of S. mutans UA159 were formed on saliva coated hydroxyapatite (sHA) surfaces (12.7 mm in diameter, 1 mm in thickness, Clarkson Chromatography Products Inc., South Williamsport, Pa.) as detailed elsewhere (Koo et al., 2010, J Bacteriol, 192(12):3024-32). The HA discs were placed vertically using a custom-made holder and grown in UFTYE (pH 7.0) with 1% sucrose at 37° C. and 5% CO2. Disks were pretreated with the above-described solutions for 10 min, washed twice with sterile saline, and transferred back to culture media. The first treatment was applied directly after salivary pellicle formation (sHA) then treated disks were transferred to culture media containing S. mutans (10^5 CFU/ml). Biofilms were allowed to form on the discs without interruption for 6 hours at which point a second treatment was applied. The next day, biofilms were treated every 6 hours for a total of 3 treatments and the culture media was changed twice. After 48 hours, the amount of colony forming units (CFU) per dry-weight of biofilms was assessed. Briefly, the biofilms were removed and homogenized, then plated onto blood agar plates, and after incubation at 37° C., 5% CO2, the CFUs were counted as described previously (Koo et al., 2003, J Antimicrob Chemother, 52(5):782-9).

[2] = system: Streptococcus mutants (S. mutans); details: cited from earlier work

CC(C)=CCCC(C)=CCCC(C)=CCO [farnesol]
effect on CFU relative to PBS [1]: no effect on CFU
MIC [2]: < 28 µg/mL
